Results published in EP1960421B1, “NEW POLYPEPTIDES AND THEIR USE” (SEDERMA, priority 2005, dated 2007).
Peptide text beside a SMILES is read from it. * marks the point of attachment. Palmitoyl = CCCCCCCCCCCCCCCC(=O)*

Assay: Solubility in the cell culture conditions (medium without foetal calf serum and few solvent)
Type: physicochemical
Details: cell culture medium without foetal calf serum and few solvent (DMSO 0.08%)
Experimental: After 3 days of incubation, supernatants were collected and frozen. Survival was estimated on cell layer using a fluorescent probe. Collagen I was estimated using an original direct ELISA method. Results: TGF-b1 should be promoter of Collagen I synthesis. Statistical analysis were performed on Collagen I data (n=3 to n=5 / assay). Results obtained with molecules were compared to negative control. A Student t test for non paired values was used; significativity was obtained if p < 0.05 or p < 0.01. In our cell culture conditions (medium without foetal calf serum and few solvent), Pal-Gly-Lys-Thr-Thr-Lys-Ser was insoluble for concentrations > 5.4 ppm. Table 1: Effect of Pal-Gly-Lys-Thr-Thr-Lys-Ser (SEQ ID NO: 14) on NHDF's Collagen I. Results (from 4 independent experimentations) are in percent compared to the negative control.

- insoluble for concentrations: > 5.4 ppm
Compound: CCCCCCCCCCCCCCCC(=O)NCC(=O)N[C@@H](CCCCN)C(=O)N[C@H](C(=O)N[C@H](C(=O)N[C@@H](CCCCN)C(=O)N[C@@H](CO)C(=O)O)[C@@H](C)O)[C@@H](C)O [N-Palmitoyl-Gly-Lys-Thr-Thr-Lys-Ser] (Palmitoyl-GKTTKS-OH)
